Experiments:
C4-2B (KD) cells = experiment: MTS cell proliferation assay, C4-2B (KD); type: cell-based, human; settings: C4-2B (KD) versus neo-control
Description: For example, six thousand (6,000) cells per well may be plated in 96 well plates, which may be cultured in 1% DCC-FBS (dextran-coated, charcoal-treated fetal bovine serum) containing T medium (C4-2B) or serum-free T medium (PC3) with 5% CO2 at 37° C. overnight. Cells may then be treated with anti-β2-M mAbs for 48 h. […] Two to four days post-treatment, cell growth may be determined by MTS assay using the CellTiter96 Aqueous One Solution Cell Proliferation Assay (Promega) according to the manufacturer's instructions.

neo-control cells = experiment: MTS cell proliferation assay, neo-control cells; type: cell-based, human
Description: For example, six thousand (6,000) cells per well may be plated in 96 well plates, which may be cultured in 1% DCC-FBS (dextran-coated, charcoal-treated fetal bovine serum) containing T medium (C4-2B) or serum-free T medium (PC3) with 5% CO2 at 37° C. overnight. Cells may then be treated with anti-β2-M mAbs for 48 h. Chemotherapeutic agents, such as PS-341, gemcitabine, cisplatin, doxorubicin, taxotere, or 17-AAG, may then be added to the culture media. Two to four days post-treatment, cell growth may be determined by MTS assay using the CellTiter96 Aqueous One Solution Cell Proliferation Assay (Promega) according to the manufacturer's instructions. Results from these experiments are shown in FIGS. 7-21, with various chemotherapeutic agents.

SMILES | sensitivity to growth inhibition, β2-M knockdown cells compared with neo-control cells (C4-2B (KD) cells) | growth inhibition by agent alone (neo-control cells; PS-341 at concentrations of 1 (AM or higher)) | growth inhibition by agent alone (neo-control cells; gemcitabine at lower doses (10 μM or lower))
CC(C)C[C@H](NC(=O)[C@H](Cc1ccccc1)NC(=O)c1cnccn1)B(O)O [PS-341, bortezomib] | more sensitive | effective by itself | –
CC(=O)O[C@@]12CO[C@@H]1C[C@H](O)[C@@]1(C)C(=O)[C@H](O)C3=C(C)[C@@H](OC(=O)[C@H](O)[C@@H](NC(=O)OC(C)(C)C)c4ccccc4)C[C@@](O)([C@@H](OC(=O)c4ccccc4)[C@H]21)C3(C)C [taxotere] | more sensitive | – | –
N.N.[Cl][Pt][Cl] [cisplatin] | more sensitive | – | –
Nc1ccn([C@@H]2O[C@H](CO)[C@@H](O)C2(F)F)c(=O)n1 [gemcitabine] | more sensitive | – | not particularly effective
